Experimental data: the supplement of paper PMC10307832

What was measured:
Assay in all cases: relative viability (nuclei count vs DMSO), 5 days (fraction); higher = more cells survive
A549 = test system: A549
How it was run: (§1)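 Dosing by pin tool came one day after lung cancer cell lines were seeded in 1536-well plates, using either one drug or a fixed anchor-drug dose plus five library-drug doses (not always all listed) in √10 steps. After 5 days, nuclei were counted on 4× images. Relative viability is treated-well nuclei count divided by vehicle-well nuclei count, and values are medians of duplicate plates.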

Calu-6 = test system: Calu-6
How it was run: as §1

EBC-1 = test system: EBC-1
How it was run: as §1

IA-LM = test system: IA-LM
How it was run: as §1

LCLC-97TM1 = test system: LCLC-97TM1
How it was run: as §1

NCI-H1299 = test system: NCI-H1299
How it was run: as §1

NCI-H1355 = test system: NCI-H1355
How it was run: as §1

NCI-H1623 = test system: NCI-H1623
How it was run: as §1

NCI-H1703 = test system: NCI-H1703
How it was run: as §1

NCI-H1993 = test system: NCI-H1993
How it was run: as §1

NCI-H23 = test system: NCI-H23
How it was run: as §1

NCI-H322M = test system: NCI-H322M
How it was run: as §1

NCI-H596 = test system: NCI-H596
How it was run: as §1

UMC-11 = test system: UMC-11
How it was run: as §1

NCI-H1648 = test system: NCI-H1648
How it was run: as §1

CCN(CC)CCCCNc1ncc2cc(-c3cc(OC)cc(OC)c3)c(NC(=O)NC(C)(C)C)nc2n1 + COc1cc2c(Oc3ccc(NC(=O)C4(C(=O)Nc5ccc(F)cc5)CC4)cc3F)ccnc2cc1OCCCN1CCOCC1 [Foretinib] (partner 0.25 µM)
relative viability (A549; first compound 0.01 µM): 1.07
relative viability (A549; first compound 0.03162 µM): 0.841
relative viability (A549; first compound 0.1 µM): 1.1
relative viability (A549; first compound 0.3162 µM): 1.17
relative viability (A549; first compound 1 µM): 0.758
relative viability (Calu-6; first compound 0.01 µM): 0.97
relative viability (Calu-6; first compound 0.03162 µM): 0.994
relative viability (Calu-6; first compound 0.1 µM): 1.02
relative viability (Calu-6; first compound 0.3162 µM): 0.902
relative viability (Calu-6; first compound 1 µM): 0.86
relative viability (EBC-1; first compound 0.01 µM): 0.103
relative viability (EBC-1; first compound 0.03162 µM): 0.111
relative viability (EBC-1; first compound 0.1 µM): 0.12
relative viability (EBC-1; first compound 0.3162 µM): 0.104
relative viability (EBC-1; first compound 1 µM): 0.106
relative viability (IA-LM; first compound 0.01 µM): 1.19
relative viability (IA-LM; first compound 0.03162 µM): 1.33
relative viability (IA-LM; first compound 0.1 µM): 1.17
relative viability (IA-LM; first compound 0.3162 µM): 1.16
relative viability (IA-LM; first compound 1 µM): 1.23
relative viability (LCLC-97TM1; first compound 0.01 µM): 1.1
relative viability (LCLC-97TM1; first compound 0.03162 µM): 0.94
relative viability (LCLC-97TM1; first compound 0.1 µM): 1.03
relative viability (LCLC-97TM1; first compound 0.3162 µM): 1.06
relative viability (LCLC-97TM1; first compound 1 µM): 0.95
relative viability (NCI-H1299; first compound 0.01 µM): 1.12
relative viability (NCI-H1299; first compound 0.03162 µM): 1.1
relative viability (NCI-H1299; first compound 0.1 µM): 1.16
relative viability (NCI-H1299; first compound 0.3162 µM): 1.08
relative viability (NCI-H1299; first compound 1 µM): 1.02
relative viability (NCI-H1355; first compound 0.01 µM): 1.01
relative viability (NCI-H1355; first compound 0.03162 µM): 0.967
relative viability (NCI-H1355; first compound 0.1 µM): 1.01
relative viability (NCI-H1355; first compound 0.3162 µM): 1.1
relative viability (NCI-H1355; first compound 1 µM): 0.991
relative viability (NCI-H1623; first compound 0.01 µM): 0.859
relative viability (NCI-H1623; first compound 0.03162 µM): 0.674
relative viability (NCI-H1623; first compound 0.1 µM): 0.876
relative viability (NCI-H1623; first compound 0.3162 µM): 0.945
relative viability (NCI-H1623; first compound 1 µM): 0.874
relative viability (NCI-H1703; first compound 0.01 µM): 0.314
relative viability (NCI-H1703; first compound 0.1 µM): 0.388
relative viability (NCI-H1703; first compound 0.3162 µM): 0.308
relative viability (NCI-H1703; first compound 1 µM): 0.373
relative viability (NCI-H1993; first compound 0.01 µM): 0.751
relative viability (NCI-H1993; first compound 0.03162 µM): 0.791
relative viability (NCI-H1993; first compound 0.1 µM): 0.934
relative viability (NCI-H1993; first compound 0.3162 µM): 0.917
relative viability (NCI-H1993; first compound 1 µM): 0.714
relative viability (NCI-H23; first compound 0.01 µM): 1.01
relative viability (NCI-H23; first compound 0.03162 µM): 0.831
relative viability (NCI-H23; first compound 0.1 µM): 1.23
relative viability (NCI-H23; first compound 0.3162 µM): 0.984
relative viability (NCI-H23; first compound 1 µM): 0.955
relative viability (NCI-H322M; first compound 0.01 µM): 0.991
relative viability (NCI-H322M; first compound 0.03162 µM): 0.946
relative viability (NCI-H322M; first compound 0.1 µM): 1.08
relative viability (NCI-H322M; first compound 0.3162 µM): 1.01
relative viability (NCI-H322M; first compound 1 µM): 0.966
relative viability (NCI-H596; first compound 0.01 µM): 0.852
relative viability (NCI-H596; first compound 0.03162 µM): 0.919
relative viability (NCI-H596; first compound 0.1 µM): 0.943
relative viability (NCI-H596; first compound 0.3162 µM): 0.931
relative viability (NCI-H596; first compound 1 µM): 0.73
relative viability (UMC-11; first compound 0.01 µM): 0.952
relative viability (UMC-11; first compound 0.03162 µM): 1.02
relative viability (UMC-11; first compound 0.1 µM): 1.14
relative viability (UMC-11; first compound 0.3162 µM): 1.19
relative viability (UMC-11; first compound 1 µM): 1.02

O=c1cc(N2CCOCC2)oc2c(-c3cccc4c3sc3ccccc34)cccc12 + COc1cccc2cc(-c3nc([C@H]4CC[C@H](C(=O)O)CC4)n4ncnc(N)c34)[nH]c12 [OSI-027] (partner 0.5 µM)
relative viability (LCLC-97TM1; first compound 0.01 µM): 0.583
relative viability (LCLC-97TM1; first compound 0.03162 µM): 0.684
relative viability (LCLC-97TM1; first compound 0.1 µM): 0.491
relative viability (LCLC-97TM1; first compound 0.3162 µM): 0.612
relative viability (LCLC-97TM1; first compound 1 µM): 0.555
relative viability (NCI-H1355; first compound 0.01 µM): 0.474
relative viability (NCI-H1355; first compound 0.03162 µM): 0.469
relative viability (NCI-H1355; first compound 0.1 µM): 0.265
relative viability (NCI-H1355; first compound 0.3162 µM): 0.452
relative viability (NCI-H1355; first compound 1 µM): 0.394
relative viability (NCI-H1623; first compound 0.01 µM): 0.45
relative viability (NCI-H1623; first compound 0.03162 µM): 0.477
relative viability (NCI-H1623; first compound 0.1 µM): 0.362
relative viability (NCI-H1623; first compound 0.3162 µM): 0.407
relative viability (NCI-H1623; first compound 1 µM): 0.429
relative viability (NCI-H1648; first compound 0.01 µM): 0.244
relative viability (NCI-H1648; first compound 0.03162 µM): 0.253
relative viability (NCI-H1648; first compound 0.1 µM): 0.239
relative viability (NCI-H1648; first compound 0.3162 µM): 0.235
relative viability (NCI-H1648; first compound 1 µM): 0.235
relative viability (NCI-H1993; first compound 0.01 µM): 0.501
relative viability (NCI-H1993; first compound 0.03162 µM): 0.521
relative viability (NCI-H1993; first compound 0.1 µM): 0.566
relative viability (NCI-H1993; first compound 0.3162 µM): 0.532
relative viability (NCI-H1993; first compound 1 µM): 0.65
relative viability (NCI-H23; first compound 0.01 µM): 0.641
relative viability (NCI-H23; first compound 0.03162 µM): 0.633
relative viability (NCI-H23; first compound 0.3162 µM): 0.757
relative viability (NCI-H23; first compound 1 µM): 0.723
relative viability (NCI-H322M; first compound 0.01 µM): 0.599
relative viability (NCI-H322M; first compound 0.03162 µM): 0.646
relative viability (NCI-H322M; first compound 0.1 µM): 0.282
relative viability (NCI-H322M; first compound 0.3162 µM): 0.579
relative viability (NCI-H322M; first compound 1 µM): 0.43
relative viability (NCI-H596; first compound 0.01 µM): 0.738
relative viability (NCI-H596; first compound 0.03162 µM): 0.747
relative viability (NCI-H596; first compound 0.1 µM): 0.493
relative viability (NCI-H596; first compound 0.3162 µM): 0.828
relative viability (NCI-H596; first compound 1 µM): 0.722
relative viability (UMC-11; first compound 0.01 µM): 0.472
relative viability (UMC-11; first compound 0.03162 µM): 0.507
relative viability (UMC-11; first compound 0.1 µM): 0.496
relative viability (UMC-11; first compound 0.3162 µM): 0.526
relative viability (UMC-11; first compound 1 µM): 0.45
